Assay results reported in patent US11542508B2, “Isolated polynucleotides and polypeptides and methods of using same for expressing an expression product of interest” (priority 2016, dated 2023).

Tests used:
[1] = tested on: aimX; assay: RNA-seq / differential expression analysis during phi3T infection; assay type: cell-based; conditions: medium supplemented by 1 μM peptide
Method: To determine the difference in gene expression with and without the peptide, bacteria were incubated for 1 hour in LB medium supplemented with 0.1 mM MnCl2 and 5 mM MgCl2 in the presence or absence of 1 μM synthesized SAIRGA (SEQ ID NO: 269) peptide. Following, the bacteria were infected with phi3T (MOI=0.1); and cell pellets were collected at 0, 5, 10 and 20 minutes post infection.
RNA extraction and RNA-seq was performed as described in Dar et al.^33. Briefly, pellets were lysed using the Fastprep homogenizer (MP Biomedicals, Santa Ana, Calif.) and RNA was extracted with the FastRNA PRO blue kit (MP Biomedicals, 116025050) according to manufacturer's instructions. […]
RNA-seq libraries were sequenced using the Illumina NextSeq500 platform. Sequenced reads were demultiplexed and adapters were trimmed using fastx_clipper with default parameters. Reads were mapped to the reference genomes (gene annotation and sequences were downloaded from Genbank: NC_000964 for Bacillus subtilis str. 168, AP012496 for Bacillus subtilis BEST7003) using NovoAlign (Novocraft) V3.02.02 with default parameters. […]
Reads per gene were calculated for each biological replicate at 20 minutes post infection with and without the synthetic peptide and normalized relative to the total mapped reads hitting the phage genome in each replicate. […]

[2] = tested on: phi3T; assay: Growth dynamics of phage-infected cultures (phi3T infection of B. subtilis 168); assay type: cell-based
Method: Specifically, overnight cultures of B. subtilis strain 168 were diluted 1:50 in LB media supplemented with 0.1 mM MnCl2 and 5 mM MgCl2, and incubated at 37° C. with shaking until reaching optical density (O.D) 600 nm=0.5. Phages (phi29, phi105, rho14 or phi3T) were added to the bacterial culture at MOI=1 and incubated for 3 hours. The media were centrifuged at 4000 rpm for 10 minutes at 4° C. and the supernatant was filtered with 0.2 μm filer (GE Healthcare Life Sciences, Whatman, CAT #10462200). Phages and large molecules were further filtered out from the media by using Amicon Ultra centrifugal filters at a cutoff of 3,000 NMWL (3 kDa) (Milipore, CAT #UFC900324). A plaque assay was performed in order to verify that no phages were left in the medium.
7.5 mg (per reaction) of Proteinase K-Agarose from Tritirachium album (Sigma, CAT #P9290) were washed twice with 750 μl of sterile water and then resuspended with 750 μl of LB supplemented with 0.1 mM MnCl2 and 5 mM MgCl2. Following, the tubes were centrifuged again and the supernatant was discarded. 1.5 ml of phi3T-derived conditioned medium or control medium was added to a tube containing the washed proteinase K. The media were incubated for 2 hours at 37° C. with the proteinase K. The media were centrifuged and the supernatants were collected for the infection assay.
(§1) Overnight cultures of bacteria were diluted 1:100 in LB media and incubated at 37° C. with shaking until reaching O.D 600 nm=0.1. The bacterial culture was centrifuged at 4000 rpm for 10 minutes at room temperature. The supernatant was discarded and the pellet was resuspended in LB medium supplemented with 0.1 mM MnCl2 and 5 mM MgCl2 at 10% of the initial volume. The concentrated bacterial culture was added to conditioned medium or medium supplemented with synthesized arbitrium peptide in a ratio of 1:9 (bacteria to medium) and incubated for 1 hour at room temperature. Following, the culture was infected with phages at MOI=0.1. Optical density measurements at a wavelength of 600 nm were taken using a TECAN Infinite 200 plate reader in a 96-wells plate.

[3] = tested on: Bacillus subtilis BEST7003 containing Construct #1; assay: GFP reporter expression, Construct #1; assay type: cell-based; conditions: Construct #1, peptide 62.5 nM-1000 nM in LB
Method: Starter growths of wild type (WT) Bacillus subtilis BEST7003 strain and of Bacillus subtilis BEST7003 strains containing Construct #1 or Construct #2 were cultured in 3 ml Luria-Bertani (LB) broth until the growth curve indicated stationary phase. Following, the bacterial cells were diluted in a ratio of 1/100 in LB broth or LB broth supplemented with a SAIRGA (SEQ ID NO: 269) peptide at a concentration range of 62.5 nM-1000 nM. Optical density (O.D. at 600 nm) and GFP fluorescence levels (488 nm excitation/518 nm emission) were measured over time in a 96 wells plate using a TECAN Infinite 200 plate reader.

[4] = tested on: phi3T; assay: Sequencing-based assay for lysogeny; assay type: cell-based, B. subtilis 168; conditions: 60 minutes post infection, phi3T MOI=2, peptide 1 μM; 18% (±3.3%) without peptide
Method: An overnight culture of bacteria was diluted 1/100 until reaching O.D 600 nm=0.1. Medium was replaced as described above [LB supplemented with 0.1 mM MnCl2 and 5 mM MgCl2 with or without SAIRGA (SEQ ID NO: 269)], and incubated for 1 hour at room temperature. Bacteria were infected by phi3T at multiplicity of infection (MOI)=2. Cell pellets were collected at 5, 10, 20 and 60 minutes post infection in the presence or absence of SAIRGA (SEQ ID NO: 269) peptide at 1 μM final concentration in the medium. DNA was extracted using QIAGEN DNeasy blood and tissue kit (CAT #69504) and subjected to Illumina-based whole genome sequencing on NextSeq500. The relative abundance of lysogens in each sample was estimated using the number of reads mapped to the uninterrupted integration site versus reads mapped to the integration junction spanning the prophage DNA on one end and the bacterial DNA on the other end.

[5] = tested on: spBeta; assay: Growth dynamics of phage-infected cultures (spBeta infection of B. subtilis BEST7003); assay type: cell-based; conditions: B. subtilis BEST7003 infected by spBeta at MOI=0.1, LB supplemented with synthesized peptide
Method: as §1

CC[C@H](C)[C@H](NC(=O)[C@H](C)NC(=O)[C@@H](N)CO)C(=O)N[C@@H](CCCNC(=N)N)C(=O)NCC(=O)N[C@@H](C)C(=O)O [SAIRGA, Ser-Ala-Ile-Arg-Gly-Ala]
reduction of aimX expression [1]: more than 20 fold | effect on the phage infection dynamics (culture lysis, growth curve) ([2]; B. subtilis 168 infected by phi3T at MOI=0.1, LB supplemented with synthesized peptide): reduced culture lysis | peptide concentration of maximal effect on the culture growth curve ([2]; B. subtilis 168 infected by phi3T at MOI=0.1, effect saturated above): 500 nM | GFP fluorescence in presence of peptide [3]: fluorescence gradually repressed in a manner proportional to the concentration of the peptide | bacteria lysogenized [4]: 48% (±7.9%) | effect on lysogeny / infection dynamics of spBeta [5]: had no effect on the infection dynamics of spBeta
